Data reported in patent US7674793B2, “Tricyclic dihydropyrazines as potassium channel openers” (Janssen Pharmaceutica NV, priority 2006, dated 2010).

Molecular target: T1, KATP channels (Homo sapiens, UniProt O60706+Q14654)
T1 construct: TE671 human medulloblastoma cells were obtained from ATCC; host or cells: TE671 human medulloblastoma cells
Test: Potassium Channel Assay (FLIPR membrane potential dye, TE671 cells)
Format: cell-based
Set-up: key: Active: A compound was designated as active if it produced greater than or equal to 10% response at 30 μM; Inactive: A compound was designated as inactive if it produced less than 10% response at 30 μM
Details: percent response at 30 μM; TE671 human medulloblastoma cells; hyperpolarization seen as decrease in fluorescent intensity, room temperature
Method: TE671 human medulloblastoma cells were obtained from ATCC and grown in Dulbecco's modified Eagle's medium (DMEM) supplemented with 10% fetal bovine serum, 100 U/ml penicillin and 100 U/ml streptomycine.
The day before testing, the cells were plated in black 96-well plates at 50 K/well. On the day of testing, the growth media was removed, then 100 μl of FLIPR buffer (20 mM HEPES, 120 mM NaCl, 2 mM KCl, 2 mM CaCl2, 1 mM MgCl2, 5 mM Glucose) and 100 μl of Membrane Potential Assay Dye (Molecular Devices) dissolved in FLIPR buffer were added to each well. The cells were incubated at room temperature for 15 to 30 min.
The effect of test compounds on KATP channels were evaluated on a fluorometric imaging plate reader (FLIPR, Molecular Devices) at room temperature. After a baseline period, 50 μl of 5× stock solution of test compound prepared in FLIPR buffer was added and fluorescent change was monitored for 3 minutes. After this reading, glyburide, a KATP channel blocker, was added to a final concentration of 5 μM to check the specificity of the test compound as a KATP channel openers. Hyperpolarization resulting from KATP channel opening was observed as a decrease in fluorescent intensity.
Representative compounds of the present invention were tested according to the procedure described above, with results as listed in Table BIO1 below. Test compound activity was determined as the percent. A compound was designated as active if it produced greater than or equal to 10% response at 30 μM.

T1 sequence (O60706 1-1549 isoform O60706-2): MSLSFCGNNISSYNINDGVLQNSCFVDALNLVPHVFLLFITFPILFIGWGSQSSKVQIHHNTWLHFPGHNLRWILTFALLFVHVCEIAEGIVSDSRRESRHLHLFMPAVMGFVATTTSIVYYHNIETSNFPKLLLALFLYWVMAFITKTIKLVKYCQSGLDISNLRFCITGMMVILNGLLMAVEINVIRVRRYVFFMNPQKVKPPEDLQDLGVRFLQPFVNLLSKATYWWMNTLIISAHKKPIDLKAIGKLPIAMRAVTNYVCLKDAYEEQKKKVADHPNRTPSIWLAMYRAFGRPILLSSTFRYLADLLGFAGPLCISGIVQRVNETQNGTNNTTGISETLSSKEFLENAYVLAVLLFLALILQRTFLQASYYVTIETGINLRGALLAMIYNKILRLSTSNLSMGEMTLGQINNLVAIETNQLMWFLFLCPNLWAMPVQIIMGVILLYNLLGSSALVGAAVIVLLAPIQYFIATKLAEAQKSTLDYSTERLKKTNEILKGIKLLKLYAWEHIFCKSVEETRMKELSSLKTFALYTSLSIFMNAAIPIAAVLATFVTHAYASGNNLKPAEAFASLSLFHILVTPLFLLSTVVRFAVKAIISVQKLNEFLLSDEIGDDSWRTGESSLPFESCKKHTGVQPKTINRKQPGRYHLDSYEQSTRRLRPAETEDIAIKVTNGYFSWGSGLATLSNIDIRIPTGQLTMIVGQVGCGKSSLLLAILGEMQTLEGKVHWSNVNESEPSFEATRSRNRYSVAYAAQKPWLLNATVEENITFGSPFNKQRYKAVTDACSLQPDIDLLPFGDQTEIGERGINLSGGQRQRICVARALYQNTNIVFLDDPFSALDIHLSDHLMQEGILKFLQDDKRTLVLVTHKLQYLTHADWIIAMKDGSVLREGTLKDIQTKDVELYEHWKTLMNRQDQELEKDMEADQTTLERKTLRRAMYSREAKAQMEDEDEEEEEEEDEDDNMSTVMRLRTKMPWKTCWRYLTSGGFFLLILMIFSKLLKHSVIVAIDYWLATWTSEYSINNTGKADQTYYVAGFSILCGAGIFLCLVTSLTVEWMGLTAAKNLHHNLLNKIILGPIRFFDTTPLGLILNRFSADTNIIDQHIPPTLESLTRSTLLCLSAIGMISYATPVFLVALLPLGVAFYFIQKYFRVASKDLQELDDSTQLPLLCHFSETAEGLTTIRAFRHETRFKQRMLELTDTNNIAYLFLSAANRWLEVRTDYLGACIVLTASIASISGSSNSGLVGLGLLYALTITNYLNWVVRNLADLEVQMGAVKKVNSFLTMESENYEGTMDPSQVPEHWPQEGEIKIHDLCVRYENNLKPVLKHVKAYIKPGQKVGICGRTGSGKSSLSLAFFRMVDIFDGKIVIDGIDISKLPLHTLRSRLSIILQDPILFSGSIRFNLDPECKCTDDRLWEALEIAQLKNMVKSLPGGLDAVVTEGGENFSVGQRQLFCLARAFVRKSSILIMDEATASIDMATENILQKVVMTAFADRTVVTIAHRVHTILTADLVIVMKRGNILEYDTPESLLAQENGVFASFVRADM
T1 sequence (Q14654 whole entry): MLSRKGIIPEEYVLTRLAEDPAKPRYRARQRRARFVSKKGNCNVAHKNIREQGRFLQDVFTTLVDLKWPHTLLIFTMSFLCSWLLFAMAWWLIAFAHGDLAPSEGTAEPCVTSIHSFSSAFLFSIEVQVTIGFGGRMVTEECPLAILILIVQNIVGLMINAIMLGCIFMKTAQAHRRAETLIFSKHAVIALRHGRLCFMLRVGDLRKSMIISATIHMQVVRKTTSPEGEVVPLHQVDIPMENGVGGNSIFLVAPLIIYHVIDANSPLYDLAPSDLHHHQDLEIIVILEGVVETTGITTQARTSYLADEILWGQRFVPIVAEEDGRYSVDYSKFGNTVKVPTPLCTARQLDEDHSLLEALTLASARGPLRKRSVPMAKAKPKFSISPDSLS

Row | Structure (SMILES) | Response
1 | O=C1CCCC(O)=C1N(C1=C(O)CCCC1=O)c1ccc(F)c(F)c1 [compound 2] | Active
2 | O=C1CCCC(O)=C1N(C1=C(O)CCCC1=O)c1cccc(I)c1 [compound 3] | Active
3 | N#Cc1cccc(N(C2=C(O)CCC2=O)C2=C(O)CCC2=O)c1 [compound 5] | Active
